Assay [1] deals with GDP-bound HRAS wild-type protein (Homo sapiens, UniProt P01112). Kind of assay: Binding to HRAS by surface plasmon resonance (SPR), Single Cycle Kinetics. The note with it: for HRAS/KRAS (ratio of KD value for HRAS to KD value for KRAS): SPR, GDP-bound HRAS wild-type protein vs GDP-bound KRAS wild-type protein; for HRAS/KRAS (ratio of KD value with respect to GDP-bound HRAS wild-type protein to KD value with respect to KRAS): SPR KD ratio HRAS/KRAS, class symbols. (SPR reads the build-up and loss of mass on a sensor chip optically.)
GDP-bound HRAS wild-type protein, sequence (P01112 whole entry): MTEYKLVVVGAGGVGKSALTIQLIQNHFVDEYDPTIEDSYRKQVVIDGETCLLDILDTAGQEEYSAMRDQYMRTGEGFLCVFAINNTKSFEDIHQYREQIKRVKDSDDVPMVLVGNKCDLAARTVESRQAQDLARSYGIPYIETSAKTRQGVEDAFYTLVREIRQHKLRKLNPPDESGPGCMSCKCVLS

Assay [2] concerns the target GDP-bound NRAS wild-type protein (Homo sapiens, UniProt P01111). Kind of assay: Binding to NRAS by surface plasmon resonance (SPR), Single Cycle Kinetics. The note with it: for NRAS/KRAS (ratio of KD value for NRAS to KD value for KRAS): SPR, GDP-bound NRAS wild-type protein vs GDP-bound KRAS wild-type protein; for NRAS/KRAS (ratio of KD value with respect to GDP-bound NRAS wild-type protein to KD value with respect to KRAS): SPR KD ratio NRAS/KRAS, class symbols.

*1 amine or outer side, *2 acyl side, *3 side chain or, on linkers, in order; H or OH if unused. Where a SMILES comes first, the peptide text is derived from it. Bridges are numbered along the chain shown (N, C = ends). [ ]: non-standard residue; d: D form. The star is where a group is joined. X47 = CC(C)(C)CCN([C@@H](Cc1ccc(C(F)(F)F)cc1)C(=O)[*:2])[*:1]; hPhe(3-Cl-4-CF3) = N[C@@H](CCc1ccc(C(F)(F)F)c(Cl)c1)C(=O)O; NPrPhe(4-CF3) = CCCN[C@@H](Cc1ccc(C(F)(F)F)cc1)C(=O)O; 3Oxa8azabicyclo(3.2.1)octane = C1CC2COCC1N2*; NMeGly(cPent) = CN[C@H](C(=O)O)C1CCCC1; NMeD = CN[C@@H](CC(=O)O)C(=O)O; NMeL = CN[C@@H](CC(C)C)C(=O)O; Morpholide = C1CN(*)CCO1; NMeA = CN[C@@H](C)C(=O)O; Ac5c = NC1(C(=O)O)CCCC1; Aze = O=C(O)[C@@H]1CCN1; Sar = CNCC(=O)O

GDP-bound NRAS wild-type protein, sequence (P01111 whole entry): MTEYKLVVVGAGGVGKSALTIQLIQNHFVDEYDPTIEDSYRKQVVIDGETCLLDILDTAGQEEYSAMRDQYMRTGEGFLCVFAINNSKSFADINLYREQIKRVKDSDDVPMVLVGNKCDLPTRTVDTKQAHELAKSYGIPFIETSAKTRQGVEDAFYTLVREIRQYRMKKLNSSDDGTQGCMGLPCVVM

As to `CCC[C@H]1C(=O)N[C@@H](C2CCCC2)C(=O)N(C)CC(=O)N(C)[C@H]2C/C=C\CCN(C2=O)[C@@H](Cc2ccc(C)cc2)C(=O)N(C)CC(=O)N[C@@H](CCc2ccc(C(F)(F)F)c(OC)c2)C(=O)N2C[C@H](OCC)C[C@H]2C(=O)NC2(CC(C)(C)C2)C(=O)N(C)[C@@H](CC(C)(C)C)C(=O)N(C)[C@H](C(=O)N(C)C)CC(=O)N1C` [PP3005], the “HRAS/KRAS (ratio of KD value for HRAS to KD value for KRAS)” value in assay [1] was “B (a compound having 3 or more and less than 10 is denoted as B)”. For the same molecule, the “NRAS/KRAS (ratio of KD value for NRAS to KD value for KRAS)” value in assay [2] is “A (a compound having 10 or more and less than 20 is denoted as A)”.

`CCC(CC)[C@H]1C(=O)N(C)[C@H](C(=O)N(C)C)CC(=O)N(C)[C@@H](COC)C(=O)N[C@@H]([C@@H](C)CC)C(=O)N(C)CC(=O)N(C)[C@H]2C/C=C\CCN(C2=O)[C@@H](Cc2ccc(C)cc2)C(=O)N(C)CC(=O)N[C@@H](CCc2cc(F)c(C(F)(F)F)c(F)c2)C(=O)N2CCCC[C@H]2C(=O)NC2(CC(C)(C)C2)C(=O)N1C` [PP2922]: the “HRAS/KRAS (ratio of KD value with respect to GDP-bound HRAS wild-type protein to KD value with respect to KRAS)” value in assay [1] was “A (a compound having 10 or more and less than 20 is denoted as A)”. The “NRAS/KRAS (ratio of KD value with respect to GDP-bound NRAS wild-type protein to KD value with respect to KRAS)” value in assay [2] is recorded as “AA (a compound having 20 or more is denoted as AA)”.

Take `CC[C@H](C)[C@@H]1NC(=O)[C@H](CC(C)C)N(C)C(=O)C[C@@H](C(=O)N2CCOCC2)N(C)C(=O)[C@H](C2CCCC2)N(C)C(=O)C2(CCCC2)NC(=O)[C@@H]2CCCN2C(=O)[C@H](CCc2ccc(C(F)(F)F)c(Cl)c2)NC(=O)CN(C)C(=O)[C@H](Cc2ccc(C(F)(F)F)cc2)N(CCC(C)(C)C)C(=O)CN(C)C(=O)CN(C)C1=O` [PP0127] ([NMeL]I[Sar][Sar][X47][Sar][hPhe(3-Cl-4-CF3)]P[Ac5c][NMeGly(cPent)][NMeD]-Morpholide; lactam N-11): the “HRAS/KRAS (ratio of KD value for HRAS to KD value for KRAS)” value in assay [1] was “C (A compound having a KD ratio of 0.1 or more and less than 3 is denoted as C)”. Moreover, the “NRAS/KRAS (ratio of KD value for NRAS to KD value for KRAS)” value in assay [2] was “C (A compound having a KD ratio of 0.1 or more and less than 3 is denoted as C)”.

Turning to `CCC[C@H]1C(=O)N[C@@H](C2CCOCC2)C(=O)N(C)CC(=O)N(C)[C@H]2C/C=C\CCN(C2=O)[C@@H](Cc2ccc(C)cc2)C(=O)N(C)CC(=O)N[C@@H](CCc2ccc(C(F)(F)F)c(Cl)c2)C(=O)N2C[C@H](OCC)C[C@H]2C(=O)NC2(CC(C)(C)C2)C(=O)N(C)[C@@H](C2CCCC2)C(=O)N(C)[C@H](C(=O)N(C)C)CC(=O)N1C` [PP3002], in assay [1], the “HRAS/KRAS (ratio of KD value for HRAS to KD value for KRAS)” value is “A (a compound having 10 or more and less than 20 is denoted as A)”. Besides, the “NRAS/KRAS (ratio of KD value for NRAS to KD value for KRAS)” value in assay [2] is “A (a compound having 10 or more and less than 20 is denoted as A)”.

Consider `CCC[C@H]1C(=O)N[C@@H](C2CCOCC2)C(=O)N(C)CC(=O)N(C)[C@H]2C/C=C\CCN(C2=O)[C@@H](Cc2ccc(C)cc2)C(=O)N(C)CC(=O)N[C@@H](CCc2ccc(C(F)(F)F)c(Cl)c2)C(=O)N2C[C@H](OCC)C[C@H]2C(=O)NC2(CC(C)(C)C2)C(=O)N(C)[C@@H](CC(C)(C)C)C(=O)N(C)[C@H](C(=O)N(C)C)CC(=O)N1C` [PP3026], for which the “HRAS/KRAS (ratio of KD value for HRAS to KD value for KRAS)” value in assay [1] was “A (a compound having 10 or more and less than 20 is denoted as A)”. In addition, in assay [2], the “NRAS/KRAS (ratio of KD value for NRAS to KD value for KRAS)” value is “A (a compound having 10 or more and less than 20 is denoted as A)”.

Regarding `CCC[C@H]1C(=O)N[C@@H]([C@@H](C)CC)C(=O)N(C)CC(=O)N(C)[C@H]2C/C=C\CCN(C2=O)[C@@H](Cc2ccc(C(F)(F)F)cc2)C(=O)N(C)CC(=O)N[C@@H](CCc2cc(C)c(C(F)F)c(Cl)c2)C(=O)N2C[C@H](OCC)C[C@H]2C(=O)NC2(CC(C)(C)C2)C(=O)N(C)[C@@H](C2CCCC2)C(=O)N(C)[C@H](C(=O)N(C)C)CC(=O)N1C` [PP2866], in assay [1], the “HRAS/KRAS (ratio of KD value with respect to GDP-bound HRAS wild-type protein to KD value with respect to KRAS)” value is “A (a compound having 10 or more and less than 20 is denoted as A)”. Further, the “NRAS/KRAS (ratio of KD value with respect to GDP-bound NRAS wild-type protein to KD value with respect to KRAS)” value in assay [2] is “A (a compound having 10 or more and less than 20 is denoted as A)”.

In the case of `CCO[C@@H]1C[C@H]2C(=O)NC3(CCC3)C(=O)N(C)[C@@H](C(CC)CC)C(=O)N(C)[C@H](C(=O)N(C)C)CC(=O)N(C)[C@H]3CCCC/C=C/c4ccc(cc4)C[C@@H](C(=O)N(C)CC(=O)N[C@@H](CCc4ccc(Cl)c(Cl)c4)C(=O)N2C1)N1CC/C=C\C[C@@H](C1=O)N(C)C(=O)CN(C1CC1)C(=O)[C@H]([C@@H](C)CC)NC3=O` [PP2605], in assay [1], the “HRAS/KRAS (ratio of KD value with respect to GDP-bound HRAS wild-type protein to KD value with respect to KRAS)” value is “A (a compound having 10 or more and less than 20 is denoted as A)”. Also, the “NRAS/KRAS (ratio of KD value with respect to GDP-bound NRAS wild-type protein to KD value with respect to KRAS)” value in assay [2] is on record as “AA (a compound having 20 or more is denoted as AA)”.

Regarding `CCCN1C(=O)[C@@H]2CCN2C(=O)[C@H](C)N(C)C(=O)[C@H]([C@@H](C)CC)NC(=O)[C@H](CC(C)C)N(C)C(=O)C[C@@H](C(=O)N2C3CCC2COC3)N(C)C(=O)[C@H](C2CCCC2)N(C)C(=O)C2(CCCC2)NC(=O)[C@@H]2CCCN2C(=O)[C@H](CCc2ccc(C(F)(F)F)c(Cl)c2)NC(=O)CN(C)C(=O)[C@@H]1Cc1ccc(C(F)(F)F)cc1` [PP0182] ([NMeL]I[NMeA][Aze][NPrPhe(4-CF3)][Sar][hPhe(3-Cl-4-CF3)]P[Ac5c][NMeGly(cPent)][NMeD]-{3Oxa8azabicyclo(3.2.1)octane}; lactam N-11), in assay [1], the “HRAS/KRAS (ratio of KD value for HRAS to KD value for KRAS)” value is “B (a compound having 3 or more and less than 10 is denoted as B)”. Besides, the “NRAS/KRAS (ratio of KD value for NRAS to KD value for KRAS)” value in assay [2] was “C (A compound having a KD ratio of 0.1 or more and less than 3 is denoted as C)”.

For the origin of these results see patent US20240158446A1, “CYCLIC COMPOUND HAVING SELECTIVE INHIBITORY ACTION ON KRAS OVER HRAS AND NRAS” (CHUGAI SEIYAKU KABUSHIKI KAISHA, priority 2021, published 2024).
